These results are taken from US9527869B2, “Indolizine derivatives as phoshoinositide 3-kinases inhibitors” (CHIESI FARMACEUTICI S.P.A., priority 2014, dated 2016).

What all share (format): biochemical
Experiment [1] has as its target T1, PI3Kα (Homo sapiens, UniProt P42336).
T1 construct: purchased Millipore Ltd (Billerica, Mass.)
As to the kind of experiment: In vitro determination of the PI3K enzyme inhibitory activity in the cell free assay (ADP-Glo Kinase Assay), PI3Kα. The conditions noted are these: ATP 50 μM, read-out: PI3K alpha inhibition. Here is the method: (§1) In vitro Determination of the PI3K Enzyme Inhibitory Activity in the Cell Free Assay
(§2) Human recombinant proteins PI3Kα, PI3Kβ, PI3Kγ and PI3Kδ were purchased from Millipore Ltd (Billerica, Mass.). Compounds were dissolved at 0.5 mM in DMSO and were tested at different concentrations for their activity against PI3Ks using the ADP-Glo™ Kinase Assay (Promega, Madison Wis.) according to the manufacturer's instructions.
(§3) Briefly, the kinase reactions were performed in 384-well white plates (Greiner Bio-One GmbH, Frickenhausen). Each well was loaded with 0.1 μl of test compounds and 2.5 μl of 2× reaction buffer (40 mM Tris pH7.5, 0.5 mM EGTA, 0.5 mM Na3VO4, 5 mM β-glycerophosphate, 0.1 mg/ml BSA, 1 mM DTT), containing 50 μM PI and PS substrates (L-α-phosphatidylinositol sodium salt and L-α-phosphatidyl-L-serine, Sigma-Aldrich, St. Louis Mo.) and the PI3K recombinant proteins (PI3Kγ 0.25 ng/μl, PI3Kδ 1 ng/μl, PI3Kα 0.125 ng/μl, PI3Kβ 1 ng/μl).
(§4) The reactions were started by adding 2.5 μl of 2×ATP solution to each well (final concentrations: PI3Kγ ATP 30 μM; PI3Kδ ATP 80 μM; PI3KαATP 50 μM; PI3Kβ ATP 100 μM) and incubated for 60 min at room temperature. Subsequently, each kinase reaction was incubated for 40 min with 5 μl ADP-Glo™ Reagent, allowing depletion of unconsumed ATP. Then, the Kinase Detection Reagent (10 μl) was added in each well to convert ADP to ATP and to allow the newly synthesized ATP to be measured using a luciferase/luciferin reaction. Following 60 min incubation, the luminescence signal was measured using a Wallac EnVision® multilabel reader (PerkinElmer, Waltham Mass.).
(§5) Curve fitting and IC50 calculation were carried out using a four-parameter logistic model in XLfit (IDBS, Guilford, UK) for Microsoft Excel (Microsoft, Redmont, Wash.).

For experiment [2], the target named is T2, PI3Kβ (Homo sapiens, UniProt P42338).
T2 construct: purchased Millipore Ltd (Billerica, Mass.)
As to the kind of experiment: In vitro determination of the PI3K enzyme inhibitory activity in the cell free assay (ADP-Glo Kinase Assay), PI3Kβ. The conditions noted are these: ATP 100 μM, read-out: PI3K beta inhibition. As for the experimental part: as §1, §2, §3, §4, §5

Experiment [3] addresses T3, PI3Kγ (Homo sapiens, UniProt P48736).
T3 construct: purchased Millipore Ltd (Billerica, Mass.)
Put plainly: In vitro determination of the PI3K enzyme inhibitory activity in the cell free assay (ADP-Glo Kinase Assay), PI3Kγ. The conditions noted are these: ATP 30 μM, read-out: PI3K gamma inhibition. As for the experimental part:
as §1, §2, §3, §4, §5
(ADP-Glo first removes unused ATP, then detects ADP through luciferase.)

The target in experiment [4] is T4, PI3Kδ (Homo sapiens, UniProt O00329).
T4 construct: purchased Millipore Ltd (Billerica, Mass.)
As to the kind of experiment: In vitro determination of the PI3K enzyme inhibitory activity in the cell free assay (ADP-Glo Kinase Assay), PI3Kδ. The conditions noted are these: ATP 80 μM, read-out: PI3K delta inhibition. Here is the method:
as §1, §2, §3, §4, §5

T4 sequence (O00329 whole entry): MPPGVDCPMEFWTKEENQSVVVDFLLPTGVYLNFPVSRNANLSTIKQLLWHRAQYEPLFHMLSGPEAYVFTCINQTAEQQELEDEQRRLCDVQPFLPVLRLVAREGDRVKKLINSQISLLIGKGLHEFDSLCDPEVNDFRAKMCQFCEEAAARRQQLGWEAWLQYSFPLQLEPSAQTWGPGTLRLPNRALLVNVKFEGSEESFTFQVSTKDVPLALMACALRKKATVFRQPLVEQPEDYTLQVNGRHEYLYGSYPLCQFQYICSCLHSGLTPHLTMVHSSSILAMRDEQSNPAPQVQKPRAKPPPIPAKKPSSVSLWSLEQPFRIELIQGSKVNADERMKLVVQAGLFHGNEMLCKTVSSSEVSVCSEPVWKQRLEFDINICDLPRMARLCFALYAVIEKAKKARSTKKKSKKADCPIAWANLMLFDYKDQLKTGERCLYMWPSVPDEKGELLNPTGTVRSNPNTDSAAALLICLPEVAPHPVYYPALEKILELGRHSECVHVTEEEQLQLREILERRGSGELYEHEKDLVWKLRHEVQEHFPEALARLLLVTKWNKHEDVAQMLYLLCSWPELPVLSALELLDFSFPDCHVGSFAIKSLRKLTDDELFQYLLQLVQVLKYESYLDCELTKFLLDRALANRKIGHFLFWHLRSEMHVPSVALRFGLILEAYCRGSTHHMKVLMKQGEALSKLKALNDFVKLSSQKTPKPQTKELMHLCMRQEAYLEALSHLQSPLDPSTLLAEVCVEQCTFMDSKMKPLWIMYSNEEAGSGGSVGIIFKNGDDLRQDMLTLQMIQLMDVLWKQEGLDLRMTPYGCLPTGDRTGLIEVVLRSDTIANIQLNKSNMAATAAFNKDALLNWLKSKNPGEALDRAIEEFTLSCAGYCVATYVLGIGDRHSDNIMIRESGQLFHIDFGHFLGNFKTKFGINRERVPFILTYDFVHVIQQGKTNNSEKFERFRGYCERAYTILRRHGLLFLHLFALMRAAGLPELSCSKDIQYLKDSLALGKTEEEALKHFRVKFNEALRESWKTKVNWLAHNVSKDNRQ
T4 sequence (P27986 whole entry partner): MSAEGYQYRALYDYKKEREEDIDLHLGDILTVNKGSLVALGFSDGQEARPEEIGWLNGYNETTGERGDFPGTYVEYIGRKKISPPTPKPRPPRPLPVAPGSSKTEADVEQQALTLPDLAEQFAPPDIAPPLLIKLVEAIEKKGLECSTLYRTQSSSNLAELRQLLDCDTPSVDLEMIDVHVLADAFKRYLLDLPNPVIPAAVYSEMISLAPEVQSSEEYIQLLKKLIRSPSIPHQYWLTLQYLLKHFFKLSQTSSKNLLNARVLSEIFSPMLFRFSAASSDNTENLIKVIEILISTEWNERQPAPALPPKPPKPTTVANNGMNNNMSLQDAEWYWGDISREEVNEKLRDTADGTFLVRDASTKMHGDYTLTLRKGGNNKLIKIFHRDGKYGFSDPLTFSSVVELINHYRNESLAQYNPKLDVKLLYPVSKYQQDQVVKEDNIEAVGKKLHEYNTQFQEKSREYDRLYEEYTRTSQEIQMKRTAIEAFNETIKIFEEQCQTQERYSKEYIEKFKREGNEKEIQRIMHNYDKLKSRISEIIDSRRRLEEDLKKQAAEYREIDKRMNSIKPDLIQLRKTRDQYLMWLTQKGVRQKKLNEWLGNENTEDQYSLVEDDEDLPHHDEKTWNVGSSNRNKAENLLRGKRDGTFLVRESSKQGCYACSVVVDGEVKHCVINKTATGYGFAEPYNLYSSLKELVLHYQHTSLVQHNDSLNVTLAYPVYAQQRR
T2 sequence (P42338 whole entry): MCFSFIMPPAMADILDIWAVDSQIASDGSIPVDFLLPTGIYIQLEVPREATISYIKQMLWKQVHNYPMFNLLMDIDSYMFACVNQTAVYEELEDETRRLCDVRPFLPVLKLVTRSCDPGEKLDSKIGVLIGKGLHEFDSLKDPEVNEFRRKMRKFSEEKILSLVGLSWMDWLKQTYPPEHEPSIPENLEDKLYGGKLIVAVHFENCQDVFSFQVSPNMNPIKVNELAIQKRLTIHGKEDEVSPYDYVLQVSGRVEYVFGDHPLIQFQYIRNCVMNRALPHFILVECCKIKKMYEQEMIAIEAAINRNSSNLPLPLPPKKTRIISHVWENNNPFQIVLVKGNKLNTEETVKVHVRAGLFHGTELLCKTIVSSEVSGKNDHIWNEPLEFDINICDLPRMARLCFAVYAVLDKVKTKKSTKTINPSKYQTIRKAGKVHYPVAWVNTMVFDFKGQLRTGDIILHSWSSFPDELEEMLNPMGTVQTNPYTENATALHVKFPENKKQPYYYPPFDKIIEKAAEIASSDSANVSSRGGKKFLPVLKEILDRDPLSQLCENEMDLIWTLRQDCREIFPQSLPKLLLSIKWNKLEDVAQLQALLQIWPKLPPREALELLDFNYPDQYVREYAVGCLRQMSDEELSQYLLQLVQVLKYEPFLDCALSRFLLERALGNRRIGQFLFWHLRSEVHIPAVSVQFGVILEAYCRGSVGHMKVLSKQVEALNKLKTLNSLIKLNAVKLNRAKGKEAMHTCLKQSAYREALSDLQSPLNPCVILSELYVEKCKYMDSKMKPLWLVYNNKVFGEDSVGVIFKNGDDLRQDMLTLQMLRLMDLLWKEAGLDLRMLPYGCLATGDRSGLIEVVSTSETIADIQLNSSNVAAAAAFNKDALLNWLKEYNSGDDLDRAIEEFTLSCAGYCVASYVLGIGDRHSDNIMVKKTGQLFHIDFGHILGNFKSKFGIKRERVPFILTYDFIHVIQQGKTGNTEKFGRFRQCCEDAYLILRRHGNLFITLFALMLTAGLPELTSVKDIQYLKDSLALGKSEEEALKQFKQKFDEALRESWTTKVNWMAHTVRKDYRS
T2 sequence (P27986 whole entry partner): as the sequence (P27986 whole entry partner) above
T3 sequence (P48736 whole entry): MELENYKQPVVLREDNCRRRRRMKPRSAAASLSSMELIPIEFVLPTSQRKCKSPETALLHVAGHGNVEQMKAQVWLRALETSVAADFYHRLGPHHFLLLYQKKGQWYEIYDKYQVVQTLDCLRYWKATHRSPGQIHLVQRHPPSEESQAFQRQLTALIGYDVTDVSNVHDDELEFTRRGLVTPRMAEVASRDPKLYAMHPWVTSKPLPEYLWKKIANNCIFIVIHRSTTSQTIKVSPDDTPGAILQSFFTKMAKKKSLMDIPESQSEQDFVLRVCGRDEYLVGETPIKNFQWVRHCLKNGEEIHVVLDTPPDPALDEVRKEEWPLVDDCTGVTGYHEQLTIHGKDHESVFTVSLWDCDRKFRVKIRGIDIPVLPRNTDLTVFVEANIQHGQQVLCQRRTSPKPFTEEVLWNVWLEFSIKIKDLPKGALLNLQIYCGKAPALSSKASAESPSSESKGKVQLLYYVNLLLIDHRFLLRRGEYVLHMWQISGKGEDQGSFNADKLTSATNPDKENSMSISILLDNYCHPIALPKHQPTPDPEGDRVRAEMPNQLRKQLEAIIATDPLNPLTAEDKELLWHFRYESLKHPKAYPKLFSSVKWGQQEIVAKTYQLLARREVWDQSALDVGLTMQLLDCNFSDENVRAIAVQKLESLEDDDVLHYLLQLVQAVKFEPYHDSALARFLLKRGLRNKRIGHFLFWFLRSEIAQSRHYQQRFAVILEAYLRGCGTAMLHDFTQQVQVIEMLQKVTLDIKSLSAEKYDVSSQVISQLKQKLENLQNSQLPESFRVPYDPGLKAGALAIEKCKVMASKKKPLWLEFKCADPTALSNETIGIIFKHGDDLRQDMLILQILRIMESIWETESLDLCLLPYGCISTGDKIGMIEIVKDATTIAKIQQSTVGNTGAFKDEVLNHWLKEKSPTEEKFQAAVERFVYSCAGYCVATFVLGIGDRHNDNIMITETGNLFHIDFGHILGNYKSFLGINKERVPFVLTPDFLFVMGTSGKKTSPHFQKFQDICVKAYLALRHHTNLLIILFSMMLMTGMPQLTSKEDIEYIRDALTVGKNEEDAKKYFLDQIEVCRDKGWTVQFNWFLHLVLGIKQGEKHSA
T1 sequence (P42336 whole entry): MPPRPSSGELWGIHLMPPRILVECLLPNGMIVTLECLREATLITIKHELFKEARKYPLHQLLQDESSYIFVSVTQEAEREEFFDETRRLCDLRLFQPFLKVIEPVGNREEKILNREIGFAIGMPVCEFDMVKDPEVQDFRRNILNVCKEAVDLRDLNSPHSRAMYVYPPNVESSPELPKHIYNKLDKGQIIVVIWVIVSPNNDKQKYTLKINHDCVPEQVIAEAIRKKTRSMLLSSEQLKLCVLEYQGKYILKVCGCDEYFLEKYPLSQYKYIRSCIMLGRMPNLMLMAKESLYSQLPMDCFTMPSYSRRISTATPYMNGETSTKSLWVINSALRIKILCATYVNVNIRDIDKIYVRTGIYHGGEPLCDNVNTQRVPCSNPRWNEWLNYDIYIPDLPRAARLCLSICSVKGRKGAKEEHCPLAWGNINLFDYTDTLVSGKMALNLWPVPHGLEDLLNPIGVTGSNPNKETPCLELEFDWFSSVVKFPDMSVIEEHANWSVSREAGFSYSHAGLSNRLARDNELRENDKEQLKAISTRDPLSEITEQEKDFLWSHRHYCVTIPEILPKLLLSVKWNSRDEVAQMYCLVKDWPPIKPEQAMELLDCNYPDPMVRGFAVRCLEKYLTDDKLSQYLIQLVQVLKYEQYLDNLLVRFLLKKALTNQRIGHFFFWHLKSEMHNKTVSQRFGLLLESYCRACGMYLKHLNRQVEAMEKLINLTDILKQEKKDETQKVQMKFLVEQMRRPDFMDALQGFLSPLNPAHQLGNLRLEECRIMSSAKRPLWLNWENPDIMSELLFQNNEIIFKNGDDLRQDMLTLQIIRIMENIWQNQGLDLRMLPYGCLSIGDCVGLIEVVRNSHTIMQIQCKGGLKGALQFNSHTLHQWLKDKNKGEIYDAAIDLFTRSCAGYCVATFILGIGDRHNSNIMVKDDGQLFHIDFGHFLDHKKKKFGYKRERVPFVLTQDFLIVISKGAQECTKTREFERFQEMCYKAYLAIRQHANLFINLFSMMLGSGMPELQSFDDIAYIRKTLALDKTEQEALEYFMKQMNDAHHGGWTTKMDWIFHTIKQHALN
T1 sequence (P27986 whole entry partner): as the sequence (P27986 whole entry partner) above

As to `C[C@H](c1cc2ccccn2c1-c1ccn(CCN2CCOCC2)c(=O)c1)n1nc(-c2cc(O)cc(F)c2)c2c(N)ncnc21` (single isomer, unassigned) [Example 121b, 4-(2-{1-[4-amino-3-(3-fluoro-5-hydroxyphenyl)-1H-pyrazolo[3,4-d]pyrimidin-1-yl]ethyl}indolizin-3-yl)-1-[2-(morpholin-4-yl)ethyl]-1,2-dihydropyridin-2-one], the IC50 is 0.01 to 1 µM in experiment [1], 0.01 to 1 µM in experiment [2], 0.01 to 1 µM in experiment [3] and below 0.01 µM in experiment [4].
For the compound `C[C@H](c1c(C#N)c2ccccn2c1-c1cccc(CN(C)C)c1)n1nc(-c2cc(O)cc(F)c2)c2c(N)ncnc21` (single isomer, unassigned) [Example 127a, 2-{1-[4-amino-3-(3-fluoro-5-hydroxyphenyl)-1H-pyrazolo[3,4-d]pyrimidin-1-yl]ethyl}-3-{3-[(dimethylamino)methyl]phenyl}indolizine-1-carbonitrile], the IC50 in experiment [1] was 0.01 to 1 µM; in experiment [2], 0.01 to 1 µM; in experiment [3], 0.01 to 1 µM; in experiment [4], below 0.01 µM.
Take `C[C@H](c1c(C#N)c2ccccn2c1-c1cccc(CN(C)C)c1)n1nc(-c2cc(O)cc(F)c2)c2c(N)ncnc21` (single isomer, unassigned) [Example 127b, 2-{1-[4-amino-3-(3-fluoro-5-hydroxyphenyl)-1H-pyrazolo[3,4-d]pyrimidin-1-yl]ethyl}-3-{3-[(dimethylamino)methyl]phenyl}indolizine-1-carbonitrile]: the IC50 in experiment [1] was above 1 µM; in experiment [2], above 1 µM; in experiment [3], above 1 µM; in experiment [4] it was below 0.01 µM.
With `CC(c1cc2ccccn2c1-c1ccn(CCN(C)C)c(=O)c1)n1nc(-c2cc(O)cc(F)c2)c2c(N)ncnc21` (single isomer, unassigned) [Example 133a, 4-(2-{1-[4-amino-3-(3-fluoro-5-hydroxyphenyl)-1H-pyrazolo[3,4-d]pyrimidin-1-yl]ethyl}indolizin-3-yl)-1-[2-(dimethylamino)ethyl]-1,2-dihydropyridin-2-one], the IC50 in experiment [1] is above 1 µM; in experiment [2] it was above 1 µM; in experiment [3], above 1 µM; in experiment [4], 0.01 to 1 µM.
`CC(c1cc2ccccn2c1-c1ccn(CCN(C)C)c(=O)c1)n1nc(-c2cc(O)cc(F)c2)c2c(N)ncnc21` (single isomer, unassigned) [Example 133b, 4-(2-{1-[4-amino-3-(3-fluoro-5-hydroxyphenyl)-1H-pyrazolo[3,4-d]pyrimidin-1-yl]ethyl}indolizin-3-yl)-1-[2-(dimethylamino)ethyl]-1,2-dihydropyridin-2-one]: the IC50 in experiment [1] was 0.01 to 1 µM; in experiment [2], 0.01 to 1 µM; in experiment [3] it was 0.01 to 1 µM; in experiment [4] it was below 0.01 µM.
Consider `Nc1ncnc2c1ncn2Cc1cc2ccccn2c1-c1ccccc1` [Example 1, 9-[(3-phenylindolizin-2-yl)methyl]-9H-purin-6-amine], for which the IC50 in experiment [1], in experiment [2], in experiment [3] and in experiment [4] was above 1 µM throughout.
In the case of `Nc1ncn(Cc2cc3ccccn3c2-c2ccccc2)c2ncnc1-2` [Example 2, 3-[(3-phenylindolizin-2-yl)methyl]-3H-purin-6-amine], the IC50 in experiment [1], in experiment [2], in experiment [3] and in experiment [4] was above 1 µM in each case.
With `Nc1ncnc2c1ncn2Cc1cc2ccccn2c1-c1ccccn1` [Example 3, 9-{[3-(pyridin-2-yl)indolizin-2-yl]methyl}-9H-purin-6-amine], the IC50 in experiment [1], in experiment [2], in experiment [3] and in experiment [4] was above 1 µM each time.
Consider `Nc1ncnc2c1ncn2Cc1cc2ccccn2c1-c1cccc(F)c1` [Example 4, 9-{[3-(3-fluorophenyl)indolizin-2-yl]methyl}-9H-purin-6-amine], for which the IC50 was above 1 µM in experiment [1], above 1 µM in experiment [2], above 1 µM in experiment [3] and 0.01 to 1 µM in experiment [4].
In the case of `Nc1ncn(Cc2cc3ccccn3c2-c2cccc(F)c2)c2ncnc1-2` [Example 5, 3-{[3-(3-fluorophenyl)indolizin-2-yl]methyl}-3H-purin-6-amine], the IC50 in experiment [1], in experiment [2], in experiment [3] and in experiment [4] was above 1 µM each time.
Consider `Nc1ncnc2c1ncn2Cc1cc2ccccn2c1-c1ccccc1F` [Example 6, 9-{[3-(2-fluorophenyl)indolizin-2-yl]methyl}-9H-purin-6-amine], for which the IC50 in experiment [1], in experiment [2], in experiment [3] and in experiment [4] was above 1 µM each time.
On to `Cc1ccccc1-c1c(Cn2cnc3c(N)ncnc32)cc2ccccn12` [Example 7, 9-{[3-(2-methylphenyl)indolizin-2-yl]methyl}-9H-purin-6-amine], for which the IC50 in experiment [1], in experiment [2], in experiment [3] and in experiment [4] was above 1 µM in each case.
For `Cc1ccccc1-c1c(Cn2cnc(N)c3ncnc2-3)cc2ccccn12` [Example 8, 3-{[3-(2-methylphenyl)indolizin-2-yl]methyl}-3H-purin-6-amine], the IC50 in experiment [1], in experiment [2], in experiment [3] and in experiment [4] was above 1 µM in each case.
Take `Nc1ncnc2c1ncn2Cc1cc2ccccn2c1` [Example 9, 9-(indolizin-2-ylmethyl)-9H-purin-6-amine]: the IC50 in experiment [1], in experiment [2], in experiment [3] and in experiment [4] was above 1 µM each time.
As to `Nc1ncnc2c1ncn2Cc1cn2ccccc2c1-c1ccccc1` [Example 10, 9-[(1-phenylindolizin-2-yl)methyl]-9H-purin-6-amine], the IC50 in experiment [1], in experiment [2], in experiment [3] and in experiment [4] was above 1 µM throughout.
As to `Nc1ncnc2c1ncn2Cc1cn2ccccc2c1-c1cccc(F)c1` [Example 11, 9-{[1-(3-fluorophenyl)indolizin-2-yl]methyl}-9H-purin-6-amine], the IC50 in experiment [1], in experiment [2], in experiment [3] and in experiment [4] was above 1 µM each time.
Regarding `Cc1ccccc1-c1c(Cn2cnc3c(N)ncnc32)cn2ccccc12` [Example 12, 9-{[1-(2-methylphenyl)indolizin-2-yl]methyl}-9H-purin-6-amine], the IC50 in experiment [1], in experiment [2], in experiment [3] and in experiment [4] was above 1 µM in each case.
Take `c1ccc(-c2c(CNc3ncnc4[nH]cnc34)cc3ccccn23)cc1` [Example 13, N-[(3-phenylindolizin-2-yl)methyl]-9H-purin-6-amine]: the IC50 in experiment [1], in experiment [2], in experiment [3] and in experiment [4] was above 1 µM throughout.
Consider `c1ccc(-c2c(CNc3ncnc4[nH]cnc34)cc3ccccn23)nc1` [Example 14, N-{[3-(pyridin-2-yl)indolizin-2-yl]methyl}-9H-purin-6-amine], for which the IC50 in experiment [1], in experiment [2], in experiment [3] and in experiment [4] was above 1 µM in each case.
`Fc1cccc(-c2c(CNc3ncnc4[nH]cnc34)cc3ccccn23)c1` [Example 15, N-{[3-(3-fluorophenyl)indolizin-2-yl]methyl}-9H-purin-6-amine]: the IC50 in experiment [1], in experiment [2], in experiment [3] and in experiment [4] was above 1 µM throughout.
Consider `Fc1ccccc1-c1c(CNc2ncnc3[nH]cnc23)cc2ccccn12` [Example 16, N-{[3-(2-fluorophenyl)indolizin-2-yl]methyl}-9H-purin-6-amine], for which the IC50 in experiment [1], in experiment [2], in experiment [3] and in experiment [4] was above 1 µM throughout.
On to `c1ccc(-c2c(CNc3ncnc4[nH]cnc34)cn3ccccc23)cc1` [Example 17, N-[(1-phenylindolizin-2-yl)methyl]-9H-purin-6-amine], for which the IC50 in experiment [1], in experiment [2], in experiment [3] and in experiment [4] was above 1 µM throughout.
For the compound `Fc1cccc(-c2c(CNc3ncnc4[nH]cnc34)cn3ccccc23)c1` [Example 18, N-{[1-(3-fluorophenyl)indolizin-2-yl]methyl}-9H-purin-6-amine], the IC50 is above 1 µM in experiment [1], above 1 µM in experiment [2], above 1 µM in experiment [3] and 0.01 to 1 µM in experiment [4].
